Experiment: Solvent evaporation of nanoemulsion, crystal formation (electron microscopy)
Format: physicochemical
Details: evaporation performed after the beads formation, FIG. 4
Procedure: The organic solvent (toluene) was evaporated with Rotavapor (R-114 BUCHI) from the emulsion to form a dispersion of lipophilic drug in water. The organic solvent evaporation was performed in four steps, water was added up to the initial weight after each step.

In the case of `CCC(C)(C)C(=O)O[C@H]1C[C@@H](C)C=C2C=C[C@H](C)[C@H](CC[C@@H]3C[C@@H](O)CC(=O)O3)[C@H]21` [simvastatine], the “drug particle state after solvent evaporation” value is reported as “remain as nanoparticles”.
